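How tested: cells in 96-well plates exposed to compound for 48 hours at five concentrations. Abbreviation: GI50, concentration required for 50% inhibition of growth.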 Active and inactive are the calls of the source. Rule as the data show it: active = GI50 up to about 1.1 µM and inactive = higher.
Columns and labels:
Assay in all cases: DTP human tumour cell line panel, 48 h
[1] = system: MDA-N
[2] = system: SNB-19
[3] = system: LOX IMVI
[4] = system: EKVX
[5] = system: SNB-75
[6] = system: BT-549
[7] = system: DU-145
[8] = system: Malme-3M
[9] = system: T47D
[10] = system: MDA-MB-435
[11] = system: MDA-MB-231
[12] = system: HT-29
[13] = system: MCF7
[14] = system: NCI/ADR-RES
[15] = system: IGROV-1
[16] = system: NCI-H522
[17] = system: Hs-578T
[18] = system: CAKI-1
[19] = system: PC-3

Measured: GI50

O=c1oc2ccccc2cc1-c1cn2cc(Cl)ccc2n1
active: [1] 0.0881 µM | [2] 0.494 µM | [3] 0.698 µM | [8] 0.458 µM | [10] 0.0434 µM | [13] 0.435 µM | [14] 0.345 µM | [15] 0.685 µM | [16] 0.104 µM | [18] 0.422 µM
inactive: [4] 21.6 µM | [5] 1.76 µM | [6] 2.33 µM | [7] 5.57 µM | [9] 11 µM | [11] 3.01 µM | [12] 7.11 µM | [17] 1.23 µM | [19] 1.93 µM

N#Cc1c(Nc2ccc(F)cc2)[n+]([O-])c2ccc(Cl)cc2[n+]1[O-]
inactive: [1] 6.73 µM | [2] 6 µM | [5] 17.7 µM | [6] 8.93 µM | [7] 11.8 µM | [8] 27.5 µM | [9] 2.89 µM | [10] 4.04 µM | [11] 2.66 µM | [12] 3.47 µM | [13] 2.11 µM | [14] 1.9 µM | [15] 1.33 µM | [17] 38.3 µM | [18] 3.18 µM | [19] 4.81 µM
active: [3] 0.975 µM

COC1CC(=O)C2C(=O)N(c3ccccc3)C(=O)C23C(C(=O)c2ccccc2)=C(C)NC13O (stereo unspecified)
inactive: [1] 18.7 µM | [2] 21.4 µM | [3] 13.4 µM | [4] 17.4 µM | [6] 23.3 µM | [7] 13.5 µM | [8] 1.43 µM | [9] 2.92 µM | [10] 14.5 µM | [11] 17.1 µM | [12] 16.9 µM | [13] 4.06 µM | [14] 20.9 µM | [15] 10.4 µM | [16] 1.91 µM | [17] 22.2 µM | [18] 4.6 µM | [19] 10.4 µM

CCOC(=O)c1nc2ccccc2n(CC)c1=O
inactive: [1] > 100 µM | [2] > 100 µM | [3] > 100 µM | [4] > 100 µM | [6] > 100 µM | [7] > 100 µM | [8] > 100 µM | [9] > 100 µM | [10] > 100 µM | [11] > 100 µM | [12] > 100 µM | [13] > 100 µM | [14] > 100 µM | [15] > 100 µM | [16] > 100 µM | [17] > 100 µM | [18] > 100 µM | [19] > 100 µM

CCOC(=O)c1ccc(C(=O)C(C(C)=O)C(=O)OC(C)(C)C)[nH]1 (stereo unspecified)
inactive: [1] > 100 µM | [2] > 100 µM | [3] > 100 µM | [4] > 100 µM | [5] > 100 µM | [6] > 100 µM | [7] > 100 µM | [8] > 100 µM | [9] > 100 µM | [10] > 100 µM | [11] > 100 µM | [12] > 100 µM | [13] > 100 µM | [14] > 100 µM | [15] > 100 µM | [16] > 100 µM | [17] > 100 µM | [18] > 100 µM | [19] > 100 µM

CC(=O)c1nccc2c1c(C)nc1ccccc12
inactive: [1] 53.6 µM | [2] > 100 µM | [3] 57 µM | [4] 52.2 µM | [5] > 100 µM | [6] 97.3 µM | [7] > 100 µM | [8] > 100 µM | [9] 43.4 µM | [10] > 100 µM | [11] 38.3 µM | [12] 74.5 µM | [13] 39.7 µM | [14] > 100 µM | [15] 70 µM | [16] 47.5 µM | [17] 30.3 µM | [18] 30.3 µM | [19] 85.1 µM

O=C1c2sc(-c3ccc(F)cc3)cc2-n2cccc21
inactive: [1] 25.8 µM | [2] 16.7 µM | [3] 32.1 µM | [4] 1.89 µM | [5] 18.4 µM | [6] 34 µM | [7] 24.6 µM | [8] 77.3 µM | [9] 12.8 µM | [10] 31.4 µM | [11] 22.2 µM | [12] 25.2 µM | [13] 24.5 µM | [14] 31.2 µM | [15] 8.39 µM | [16] 34.8 µM | [17] 19.7 µM | [18] 17.1 µM | [19] 37.2 µM

CSC1=Nc2ccccc2N(C)c2c1c(-c1ccccc1)nn2C
inactive: [1] 27.7 µM | [3] 29.1 µM | [4] 65.5 µM | [5] > 100 µM | [6] 57.7 µM | [7] 91.6 µM | [9] 9.79 µM | [10] 28.4 µM | [11] 45.2 µM | [12] 21.7 µM | [13] 23.8 µM | [14] 21.8 µM | [15] 42.9 µM | [16] 7.4 µM | [17] 68.9 µM | [18] > 100 µM | [19] 35.1 µM

Cc1ncc([N+](=O)[O-])n1CC[N+](C)([O-])CCCCn1ccnc1[N+](=O)[O-] (stereo unspecified)
inactive: [1] > 100 µM | [3] > 100 µM | [4] > 100 µM | [5] > 100 µM | [6] > 100 µM | [7] > 100 µM | [8] > 100 µM | [9] > 100 µM | [10] > 100 µM | [11] > 100 µM | [12] > 100 µM | [13] > 100 µM | [14] > 100 µM | [15] > 100 µM | [16] > 100 µM | [17] > 100 µM | [18] > 100 µM | [19] > 100 µM

O=C(CC(=O)Nc1ccc(C(=O)O)cc1)Nc1ccc(C(=O)O)cc1
inactive: [1] > 100 µM | [2] > 100 µM | [3] > 100 µM | [4] > 100 µM | [6] > 100 µM | [7] > 100 µM | [8] > 100 µM | [9] 49.5 µM | [10] > 100 µM | [11] > 100 µM | [12] > 100 µM | [13] > 100 µM | [14] > 100 µM | [15] > 100 µM | [16] > 100 µM | [17] > 100 µM | [18] > 100 µM | [19] > 100 µM

CN(COC(=O)C(C)(C)C)c1nc(N(C)COC(=O)C(C)(C)C)nc(N(C)COC(=O)C(C)(C)C)n1
inactive: [1] 25.7 µM | [2] > 100 µM | [4] > 100 µM | [5] 50.2 µM | [6] 34.4 µM | [7] 22.4 µM | [8] 12.7 µM | [9] 56.6 µM | [11] 16.4 µM | [12] 34 µM | [13] 33.8 µM | [14] 44.3 µM | [15] > 100 µM | [16] 77.1 µM | [17] > 100 µM | [18] 36.7 µM | [19] 77.8 µM

COc1ccc(-c2cc(=O)c3c(OC)c(O)c(OC)cc3o2)cc1
inactive: [1] 47.3 µM | [2] 58.7 µM | [3] 36.9 µM | [4] 50.8 µM | [5] 21.8 µM | [6] 55.3 µM | [7] 49.3 µM | [8] 96.2 µM | [9] 23.1 µM | [10] 42.4 µM | [11] 23.6 µM | [12] 35.5 µM | [13] 42.7 µM | [14] 29.1 µM | [15] 33 µM | [16] 17.9 µM | [17] 40.4 µM | [18] 85.5 µM

CCCCCCNC(=O)C1=C(C)NC(C)=C(C(=O)NCCCCCC)C1
inactive: [1] 75.5 µM | [2] > 100 µM | [3] > 100 µM | [4] > 100 µM | [5] 51.9 µM | [6] > 100 µM | [7] > 100 µM | [9] > 100 µM | [10] 64.7 µM | [11] > 100 µM | [12] 89.3 µM | [13] > 100 µM | [14] > 100 µM | [15] > 100 µM | [16] > 100 µM | [17] > 100 µM | [18] > 100 µM | [19] > 100 µM

O=C1/C(=C/c2ccccc2)CCC/C1=C\c1ccccc1 [2,6-DIBENZYLIDENECYCLOHEXANONE]
inactive: [1] 2.79 µM | [2] 14.6 µM | [3] 2.21 µM | [4] 18.3 µM | [5] 20.2 µM | [6] 5.81 µM | [7] 6.97 µM | [8] 16.5 µM | [9] 6.4 µM | [10] 5.62 µM | [11] 6.07 µM | [12] 5.87 µM | [13] 1.74 µM | [14] 8.77 µM | [15] 13 µM | [17] 8.2 µM | [18] 23.4 µM | [19] 5.89 µM

Oc1ccccc1C1C=C(c2ccccc2)NC(N2CCCCC2)=C1c1nc2ccccc2[nH]1 (stereo unspecified)
inactive: [1] 13.5 µM | [2] 15 µM | [3] 17 µM | [4] 6.11 µM | [5] 4.57 µM | [6] 15.1 µM | [7] 24.2 µM | [8] 15.8 µM | [9] 18.9 µM | [10] 15.6 µM | [11] 11.9 µM | [12] 15.2 µM | [13] 12.1 µM | [14] 15.8 µM | [15] 14.6 µM | [16] 14 µM | [17] 13.4 µM | [19] 11.8 µM
